In ChEMBL document CHEMBL2169864, “Binding Model for the Interaction of Anticancer Arylsulfonamides with the p300 Transcription Cofactor” (ACS Med Chem Lett, 2012):
The source made the active and inactive calls. No cut-off for these calls is given here.

What was measured:
[1] = biological target: T1, Histone acetyltransferase p300 (Homo sapiens, UniProt Q09472); experiment: Binding affinity to recombinant P300 CH1 domain assessed as dissociation constant by surface plasmon resonance analysis
[2] = biological target: T1, Histone acetyltransferase p300; experiment: Binding affinity to GST-tagged recombinant P300 CH1 domain expressed in Escherichia coli BL21 by Coomassie staining-based gel electrophoresis; conditions: tested as the 14C-labelled form
[3] = biological target: T1, Histone acetyltransferase p300; experiment: Binding affinity to P300 in human LN229 cell nuclear extracts by Western blot analysis
[4] = biological target: Hypoxia-inducible factor 1-alpha (Homo sapiens) (UniProt Q16665); experiment: Binding affinity to HIF1alpha in human LN229 cell nuclear extracts by Western blot analysis
Hypoxia-inducible factor 1-alpha (Homo sapiens), sequence (Q16665 whole entry, looked up): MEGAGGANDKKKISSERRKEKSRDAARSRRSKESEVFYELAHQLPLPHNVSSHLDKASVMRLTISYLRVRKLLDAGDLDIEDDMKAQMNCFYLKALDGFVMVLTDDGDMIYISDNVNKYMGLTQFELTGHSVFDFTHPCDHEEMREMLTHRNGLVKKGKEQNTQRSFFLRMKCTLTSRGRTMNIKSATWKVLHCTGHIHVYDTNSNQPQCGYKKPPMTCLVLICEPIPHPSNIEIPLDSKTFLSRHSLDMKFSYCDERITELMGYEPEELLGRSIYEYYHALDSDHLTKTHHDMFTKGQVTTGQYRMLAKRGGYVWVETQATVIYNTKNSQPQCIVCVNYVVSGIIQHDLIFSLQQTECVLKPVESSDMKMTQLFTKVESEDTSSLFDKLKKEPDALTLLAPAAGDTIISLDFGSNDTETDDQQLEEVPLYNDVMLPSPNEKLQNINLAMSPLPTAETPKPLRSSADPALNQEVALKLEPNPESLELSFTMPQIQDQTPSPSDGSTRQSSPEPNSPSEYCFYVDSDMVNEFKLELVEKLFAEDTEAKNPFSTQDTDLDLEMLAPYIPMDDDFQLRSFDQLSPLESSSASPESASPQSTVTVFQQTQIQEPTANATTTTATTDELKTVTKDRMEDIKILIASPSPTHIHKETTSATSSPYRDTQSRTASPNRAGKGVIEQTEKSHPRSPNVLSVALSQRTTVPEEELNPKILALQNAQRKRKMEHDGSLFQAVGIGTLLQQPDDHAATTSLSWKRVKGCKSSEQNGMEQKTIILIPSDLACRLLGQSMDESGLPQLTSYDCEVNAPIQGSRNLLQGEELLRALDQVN

T1 sequence (Q09472 whole entry, the tested form may be a part): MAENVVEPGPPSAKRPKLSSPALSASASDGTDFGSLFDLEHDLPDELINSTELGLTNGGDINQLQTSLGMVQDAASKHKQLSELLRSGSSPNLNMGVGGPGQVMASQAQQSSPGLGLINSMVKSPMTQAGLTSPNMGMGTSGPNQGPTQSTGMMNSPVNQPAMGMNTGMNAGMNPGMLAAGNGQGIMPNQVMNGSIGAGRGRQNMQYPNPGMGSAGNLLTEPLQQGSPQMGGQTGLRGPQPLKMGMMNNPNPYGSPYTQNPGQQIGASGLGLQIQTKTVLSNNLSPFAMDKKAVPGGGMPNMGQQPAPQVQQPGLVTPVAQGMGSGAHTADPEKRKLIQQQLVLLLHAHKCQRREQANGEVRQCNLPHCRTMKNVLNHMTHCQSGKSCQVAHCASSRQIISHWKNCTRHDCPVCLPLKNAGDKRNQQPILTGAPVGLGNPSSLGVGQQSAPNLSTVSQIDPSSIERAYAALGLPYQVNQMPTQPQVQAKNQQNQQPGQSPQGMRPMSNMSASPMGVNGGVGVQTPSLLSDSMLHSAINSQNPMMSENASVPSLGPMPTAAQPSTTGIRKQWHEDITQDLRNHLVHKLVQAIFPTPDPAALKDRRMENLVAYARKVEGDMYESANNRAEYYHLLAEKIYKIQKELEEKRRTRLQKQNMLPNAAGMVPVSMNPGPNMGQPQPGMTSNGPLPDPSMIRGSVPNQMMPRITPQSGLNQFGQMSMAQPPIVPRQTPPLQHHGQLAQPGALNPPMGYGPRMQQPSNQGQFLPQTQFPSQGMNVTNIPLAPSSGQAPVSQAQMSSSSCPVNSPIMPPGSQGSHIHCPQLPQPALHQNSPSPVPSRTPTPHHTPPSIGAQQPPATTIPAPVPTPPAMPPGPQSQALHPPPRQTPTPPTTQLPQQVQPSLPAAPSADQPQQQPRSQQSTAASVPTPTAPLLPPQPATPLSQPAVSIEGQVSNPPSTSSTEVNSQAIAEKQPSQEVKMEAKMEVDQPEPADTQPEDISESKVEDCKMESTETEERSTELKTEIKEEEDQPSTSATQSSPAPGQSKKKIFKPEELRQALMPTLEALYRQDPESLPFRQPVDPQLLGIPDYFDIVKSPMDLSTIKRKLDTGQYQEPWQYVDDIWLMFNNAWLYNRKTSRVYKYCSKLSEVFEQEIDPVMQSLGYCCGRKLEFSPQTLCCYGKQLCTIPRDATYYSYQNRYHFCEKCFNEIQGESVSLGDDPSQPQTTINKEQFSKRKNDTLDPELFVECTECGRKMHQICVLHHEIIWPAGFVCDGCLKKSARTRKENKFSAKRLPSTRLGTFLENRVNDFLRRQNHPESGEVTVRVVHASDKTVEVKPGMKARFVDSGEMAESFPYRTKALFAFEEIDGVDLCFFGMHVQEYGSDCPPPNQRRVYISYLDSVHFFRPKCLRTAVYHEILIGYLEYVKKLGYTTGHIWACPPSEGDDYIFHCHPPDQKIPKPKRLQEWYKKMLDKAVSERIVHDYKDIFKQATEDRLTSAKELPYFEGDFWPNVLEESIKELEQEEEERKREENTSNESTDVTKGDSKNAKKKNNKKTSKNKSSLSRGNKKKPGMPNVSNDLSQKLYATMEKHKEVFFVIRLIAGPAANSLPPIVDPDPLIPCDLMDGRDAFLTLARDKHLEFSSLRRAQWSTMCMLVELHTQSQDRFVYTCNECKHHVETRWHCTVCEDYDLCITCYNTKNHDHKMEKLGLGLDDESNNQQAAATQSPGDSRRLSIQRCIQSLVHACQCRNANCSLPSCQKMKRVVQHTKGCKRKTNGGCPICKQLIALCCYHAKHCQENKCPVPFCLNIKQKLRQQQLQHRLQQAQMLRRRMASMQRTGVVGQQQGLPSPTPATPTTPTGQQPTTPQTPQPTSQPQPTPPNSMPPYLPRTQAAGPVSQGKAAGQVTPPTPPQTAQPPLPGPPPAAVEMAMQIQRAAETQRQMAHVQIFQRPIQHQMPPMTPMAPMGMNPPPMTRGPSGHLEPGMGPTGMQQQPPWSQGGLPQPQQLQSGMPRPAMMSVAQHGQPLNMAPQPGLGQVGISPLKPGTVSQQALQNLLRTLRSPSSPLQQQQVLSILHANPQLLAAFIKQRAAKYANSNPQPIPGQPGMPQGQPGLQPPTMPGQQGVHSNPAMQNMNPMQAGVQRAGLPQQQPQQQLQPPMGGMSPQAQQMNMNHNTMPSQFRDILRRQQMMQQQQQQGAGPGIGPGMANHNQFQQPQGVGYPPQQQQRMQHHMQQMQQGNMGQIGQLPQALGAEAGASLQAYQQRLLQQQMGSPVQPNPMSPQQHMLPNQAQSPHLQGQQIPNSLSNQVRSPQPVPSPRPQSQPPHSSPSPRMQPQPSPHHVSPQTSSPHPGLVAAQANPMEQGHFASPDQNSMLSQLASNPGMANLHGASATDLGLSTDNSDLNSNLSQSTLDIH

## COc1ccc(S(=O)(=O)N(Cc2ccc3c(c2)C=CC(C)(C)O3)c2ccccc2)cc1OC
[1]
  Kd: 345 nM
[2]
  Activity: Active
[3]
  Activity: Active
[4]
  Activity: inactive
